From patent publication US4172894A, “3-Thienyl-3-methyl-4-pentyl-2-pyridyl-ketone” (Laboratories Made, S.A., priority 1977, dated 1979)

Key:
Swiss I.C.R. albino mice [1] = experiment: Thermal analgesia, 55° C. "hot plate" technique in mice; type: in vivo; conditions: 30 mg/kg, intraperitoneal, 30 minutes before 55° C. hot plate; control 38 ± 4.253
Description: The thermal analgesic effect was studied in Swiss I.C.R. albino mice. The 55° C. "hot plate" technique was used. Batches of 10 mice were made.
The products in study were administered intraperitoneally and after 30 minutes the mice were placed on the "hot plate", note having been made, in seconds, of the time it took them to jump. Batches of control animals were injected with only distilled water.

[2] = Acute toxicity in mice, intraperitoneal, deaths counted 48 hours after treatment (Litchfield-Wilcoxon); parameters: species or system Swiss I.C.R. albino mice; conditions: mouse, in vivo, ip, deaths at 48 hours, Litchfield-Wilcoxon test
Description: Acute toxicity study was made in Swiss I.C.R. albino mice of both sexes of 30±2 g of weight, kept without food for 24 hours prior to the experiment. Ambient temperature and relative humidity were kept constant. The products were administered intraperitoneally, and 48 hours after treatment the number of deaths was counted. Calculation of the lethal dose (LD50) was made by the Litchfield-Wilcoxon test.

Swiss I.C.R. albino mice [3] = experiment: Chemical analgesia, acetic acid writhing technique in mice; type: in vivo; conditions: 25 mg/kg, intraperitoneal, 30 minutes before 0.25 ml of 1% acetic acid; counted 20 minutes later; control 121.5 ± 7.184
Description: The analgesic effect was studied in Swiss I.C.R. albino mice with the acetic acid writhing technique. Batches of 10 mice were made.
The products in study were administered intraperitoneally, and 30 minutes later 0.25 ml of 1% acetic acid were injected intraperitoneally. A batch of control animals received only the acetic acid. Twenty minutes following administration of the acetic acid, the number of writhes in each mouse is counted.

| SMILES | Jumping time (mean ± S.E.M.) (Swiss I.C.R. albino mice [1]) [see.] | LD50 at 48 h [2] [mg/kg] | No. of writhes (mean ± S.E.M.) (Swiss I.C.R. albino mice [3]) |
| --- | --- | --- | --- |
| CCC(=O)O[C@](Cc1ccccc1)(c1ccccc1)[C@H](C)CN(C)C [Dextropropoxyphene, dextropropoxyphene] | 83.7 | 140 | 62.8 |
| CCCCCc1ccnc(C(=O)c2ccsc2)c1C [Product I, 3-thienyl-3-methyl-4-pentyl-2-pyridyl-ketone] | 96.7 | 718 | 35.75 |
